From article PMC7353089, “The Hepatotoxicity of Alantolactone and Germacrone: Their Influence on Cholesterol and Lipid Metabolism in Differentiated HepaRG Cells” (Nutrients, 2020)

What was measured:
Type in all cases: cell-based, human
Conditions in all cases: multiple exposure: four applications every 24 h, analyzed 12 h after the last; 30 μM ATL, 100 μM GER, 20 μM LOV
HMGCS mRNA = test: RT-qPCR mRNA expression in dHepaRG cells
Procedure: Three concentrations were selected for each compound (non-toxic, non-toxic/slightly toxic and toxic). The cholesterol level of the dHepaRG cells was measured after a multiple exposure of the highest non-toxic concentrations of tested compounds. […] The expression changes of genes and proteins related to cholesterol metabolism were measured in both single and multiple exposure experiments.
All treatments were performed in triplicates and every experiment was performed three times. The cells were washed twice with ice cold phosphate-buffered saline (PBS), scrapped and stored at −80 °C until use. Total RNA from cells was isolated using TriReagent according to the manufacturer’s instructions (Biotech, Prague, Czech Republic). The purified RNA was dissolved in 40 µL of diethyl pyrocarbonate (DEPC)-treated water (0.01% DEPC in HPLC water, autoclaved) and stored at −80 °C. The measurement of absorbance at 260 and 280 nm using the NanoDrop ND-1000 UV–VIS Spectrophotometer (Thermo Fisher Scientific, Pardubice, Czech Republic) was used to determine RNA yields and purity. Subsequently, the RNA (4 µg) was treated with 2 U of DNase I (New England Biolabs, Ipswich, MA, USA) in a final volume of 30 µL for 25 min at 37 °C, 1.5 µL of 0.1 M ethylenediaminetetraacetic acid was added and the DNAse was inactivated by heat (5 min at 75 °C). The solution was diluted to a concentration of 0.1 µg/µL. The DNAse treated RNA was stored at −80 °C until further analyses. The first strand cDNA was synthesized from 800 ng of total RNA and 1 µL of 50 µM random hexamers (Generi Biotech, Hradec Kralove, Czech Republic) using ProtoScript II reverse transcriptase (New England Biolabs, Ipswich, MA, USA). After the initial heat denaturation of total RNA (65 °C for 5 min), 4 µL of 5× ProtoScript II RT Reaction Buffer, 2 µL of 10× dithiothreitol (DTT), 2 µL of deoxynucleotide (dNTP) Mix 5 mM, 3.5 µL of H2O, and 0.5 µL of ProtoScript II 200 U/µL were added and mixed by pipetting. The reactions (20 µL) were incubated for 10 min at 25 °C, for 50 min at 42 °C, and for 5 min at 80 °C. The obtained cDNAs were diluted 1:6 by DEPC water. The qPCR analyses were carried out using QuantStudio 6 Flex (Applied Biosystems, Foster City, CA, USA) with SYBR green I (Xceed qPCR SG Mix, Institute of Applied Biotechnologies, Prague, Czech Republic) detection according to the manufacturer’s protocol. […] Fluorescence data were recorded at the end of each amplification step. Relative expression levels of the target genes were calculated as fold changes in triplicates for each group using the 2^−ΔΔCt method [28] by normalization to the geometric mean of the Ct values of Sdha and Ywhaz, which were used as reference genes.

HMGCR mRNA = test: RT-qPCR mRNA expression in dHepaRG cells
Procedure: The mRNA and protein expression changes were measured after a single administration of ALA and GER. Three concentrations were selected for each compound (non-toxic, non-toxic/slightly toxic and toxic). The cholesterol level of the dHepaRG cells was measured after a multiple exposure of the highest non-toxic concentrations of tested compounds. ATL (30 µM) and GER (100 µM) were administered four times every 24 h. The expression changes of genes and proteins related to cholesterol metabolism were measured in both single and multiple exposure experiments.
All treatments were performed in triplicates and every experiment was performed three times. The cells were washed twice with ice cold phosphate-buffered saline (PBS), scrapped and stored at −80 °C until use. Total RNA from cells was isolated using TriReagent according to the manufacturer’s instructions (Biotech, Prague, Czech Republic). The purified RNA was dissolved in 40 µL of diethyl pyrocarbonate (DEPC)-treated water (0.01% DEPC in HPLC water, autoclaved) and stored at −80 °C. The measurement of absorbance at 260 and 280 nm using the NanoDrop ND-1000 UV–VIS Spectrophotometer (Thermo Fisher Scientific, Pardubice, Czech Republic) was used to determine RNA yields and purity. Subsequently, the RNA (4 µg) was treated with 2 U of DNase I (New England Biolabs, Ipswich, MA, USA) in a final volume of 30 µL for 25 min at 37 °C, 1.5 µL of 0.1 M ethylenediaminetetraacetic acid was added and the DNAse was inactivated by heat (5 min at 75 °C). The solution was diluted to a concentration of 0.1 µg/µL. The DNAse treated RNA was stored at −80 °C until further analyses. […] Fluorescence data were recorded at the end of each amplification step. Relative expression levels of the target genes were calculated as fold changes in triplicates for each group using the 2^−ΔΔCt method by normalization to the geometric mean of the Ct values of Sdha and Ywhaz, which were used as reference genes.

SREBP-2 (F) = test: Western blot protein level in dHepaRG cells
Procedure: All the treatments were performed in triplicates. Protein concentration was measured using the bicinchoninic acid (BCA) protein assay (Sigma Aldrich, Prague, Czech Republic) according to the manufacturer’s instructions. The proteins were loaded onto a 10% sodium dodecyl sulfate (SDS; w/v)–polyacrylamide gel (with 4% stacking gel) and separated by SDS-PAGE electrophoresis. The proteins were transferred onto a nitrocellulose membrane using wet blot (100 V, 90 min). The membrane blocking was performed in a 5% non-fat dry milk/TRIS-buffered saline-Tween-20 (TBS-T) solution at room temperature for 2 h. Incubation with primary antibodies was accomplished overnight at 10 °C. β-actin was used as housekeeping protein (the list of primary antibodies in Table S2). Afterwards, the membrane was washed with 0.05% TBS-T solution for 6 × 5 min, incubated with respective secondary antibodies conjugated with horseradish peroxidase (bovine anti-rabbit (sc2370, Santa Cruz Biotechnology, Santa Cruz, CA, USA) at room temperature for 1.5 h, and rinsed with TBS-T solution for 6 × 5 min. Visualization of protein bands was carried out using a chemiluminescence kit (GE Healthcare, Buckinghamshire, UK).

CC[C@H](C)C(=O)O[C@H]1C[C@@H](C)C=C2C=C[C@H](C)[C@H](CC[C@@H]3C[C@@H](O)CC(=O)O3)[C@H]21 [LOV, lovastatin, reference compound] was tested. Which “HMGCS mRNA level” value (HMGCS mRNA) did it give?
Its value is “decreased significantly”.

What about the “HMGCR mRNA level” value (HMGCR mRNA) of the same compound?
The value was “decreased significantly”.

What about the “SREBP-2 (F) protein level” value (SREBP-2 (F)) of the same compound?
Its value is “decreased”.
